Assay results as given in the NIST ThermoML archive (doi:10.1016/j.fluid.2004.09.013).
± gives the expanded uncertainty stated by the source.

Conditions: for mass density: Fluid (supercritical or subcritical phases), Vibrating tube method; for vapor or sublimation pressure: Liquid

## C/C=C\C [(Z)-2-butene]
393.23 K, 9997 kPa
  mass density: 513.82 ± 1.1 kg/m3
393.23 K, 15000 kPa
  mass density: 529.93 ± 1.1 kg/m3
393.23 K, 20002 kPa
  mass density: 542.79 ± 1.2 kg/m3
393.23 K, 24993 kPa
  mass density: 553.61 ± 1.2 kg/m3
393.23 K, 29998 kPa
  mass density: 563 ± 1.3 kg/m3
393.23 K, 35001 kPa
  mass density: 571.39 ± 1.4 kg/m3
393.23 K, 39987 kPa
  mass density: 578.89 ± 1.4 kg/m3
396.4 K
  vapor or sublimation pressure: 2209.3 ± 14 kPa
398.23 K, 2818 kPa
  mass density: 466.01 ± 0.98 kg/m3
398.23 K, 4984 kPa
  mass density: 481.85 ± 1 kg/m3
398.23 K, 20014 kPa
  mass density: 537.23 ± 1.2 kg/m3
398.23 K, 25003 kPa
  mass density: 548.52 ± 1.2 kg/m3
398.23 K, 34998 kPa
  mass density: 566.9 ± 1.3 kg/m3
398.23 K, 39994 kPa
  mass density: 574.66 ± 1.4 kg/m3
398.24 K, 9988 kPa
  mass density: 506.47 ± 1.1 kg/m3
398.24 K, 14995 kPa
  mass density: 523.68 ± 1.1 kg/m3
398.24 K, 29983 kPa
  mass density: 558.24 ± 1.3 kg/m3
400.36 K
  vapor or sublimation pressure: 2343.2 ± 15 kPa
403.23 K, 3025 kPa
  mass density: 454.7 ± 0.96 kg/m3
403.23 K, 14991 kPa
  mass density: 517.31 ± 1.1 kg/m3
403.23 K, 25002 kPa
  mass density: 543.35 ± 1.2 kg/m3
403.23 K, 29989 kPa
  mass density: 553.46 ± 1.3 kg/m3
403.23 K, 34986 kPa
  mass density: 562.37 ± 1.3 kg/m3
403.23 K, 39984 kPa
  mass density: 570.38 ± 1.4 kg/m3
403.24 K, 4991 kPa
  mass density: 471.74 ± 1 kg/m3
403.24 K, 9985 kPa
  mass density: 498.93 ± 1.1 kg/m3
403.24 K, 20009 kPa
  mass density: 531.6 ± 1.2 kg/m3
407.79 K
  vapor or sublimation pressure: 2693.7 ± 17 kPa
408.23 K, 14993 kPa
  mass density: 510.87 ± 1.1 kg/m3
408.23 K, 29988 kPa
  mass density: 548.67 ± 1.3 kg/m3
408.23 K, 39992 kPa
  mass density: 566.14 ± 1.4 kg/m3
408.24 K, 3245 kPa
  mass density: 443.06 ± 0.94 kg/m3
408.24 K, 5000 kPa
  mass density: 461.02 ± 0.98 kg/m3
408.24 K, 10003 kPa
  mass density: 491.26 ± 1.1 kg/m3
408.24 K, 20000 kPa
  mass density: 525.89 ± 1.2 kg/m3
408.24 K, 25002 kPa
  mass density: 538.19 ± 1.2 kg/m3
408.24 K, 35001 kPa
  mass density: 557.91 ± 1.3 kg/m3
413.23 K, 34991 kPa
  mass density: 553.36 ± 1.3 kg/m3
413.23 K, 39999 kPa
  mass density: 561.87 ± 1.4 kg/m3
413.24 K, 3479 kPa
  mass density: 430.52 ± 0.92 kg/m3
413.24 K, 4987 kPa
  mass density: 448.83 ± 0.95 kg/m3
413.24 K, 9995 kPa
  mass density: 483.23 ± 1 kg/m3
413.24 K, 14993 kPa
  mass density: 504.29 ± 1.1 kg/m3
413.24 K, 20000 kPa
  mass density: 520.13 ± 1.2 kg/m3
413.24 K, 25001 kPa
  mass density: 532.97 ± 1.2 kg/m3
413.24 K, 29987 kPa
  mass density: 543.83 ± 1.3 kg/m3
414.25 K
  vapor or sublimation pressure: 3004.6 ± 19 kPa
416.29 K
  vapor or sublimation pressure: 3089.5 ± 20 kPa
418.23 K, 9989 kPa
  mass density: 474.95 ± 1 kg/m3
418.23 K, 29990 kPa
  mass density: 538.98 ± 1.3 kg/m3
418.24 K, 3727 kPa
  mass density: 416.94 ± 0.91 kg/m3
418.24 K, 4983 kPa
  mass density: 435.78 ± 0.93 kg/m3
418.24 K, 14999 kPa
  mass density: 497.65 ± 1.1 kg/m3
418.24 K, 19989 kPa
  mass density: 514.28 ± 1.2 kg/m3
418.24 K, 24991 kPa
  mass density: 527.69 ± 1.2 kg/m3
418.24 K, 35007 kPa
  mass density: 548.86 ± 1.3 kg/m3
418.24 K, 40000 kPa
  mass density: 557.55 ± 1.4 kg/m3
422.73 K
  vapor or sublimation pressure: 3456.3 ± 22 kPa
423.24 K, 3987 kPa
  mass density: 401.93 ± 0.9 kg/m3
423.24 K, 4998 kPa
  mass density: 421.22 ± 0.93 kg/m3
423.24 K, 9996 kPa
  mass density: 466.36 ± 1 kg/m3
423.24 K, 14993 kPa
  mass density: 490.76 ± 1.1 kg/m3
423.24 K, 19998 kPa
  mass density: 508.37 ± 1.2 kg/m3
423.24 K, 24983 kPa
  mass density: 522.32 ± 1.2 kg/m3
423.24 K, 30000 kPa
  mass density: 534.08 ± 1.3 kg/m3
423.24 K, 34984 kPa
  mass density: 544.2 ± 1.3 kg/m3
423.24 K, 39995 kPa
  mass density: 553.2 ± 1.4 kg/m3
425.59 K
  vapor or sublimation pressure: 3598.4 ± 23 kPa
428.24 K, 4261 kPa
  mass density: 385.43 ± 0.91 kg/m3
428.24 K, 4996 kPa
  mass density: 404.14 ± 0.92 kg/m3
428.24 K, 10003 kPa
  mass density: 457.53 ± 0.99 kg/m3
428.24 K, 14984 kPa
  mass density: 483.8 ± 1.1 kg/m3
428.24 K, 20011 kPa
  mass density: 502.46 ± 1.1 kg/m3
428.24 K, 24985 kPa
  mass density: 517 ± 1.2 kg/m3
428.24 K, 29987 kPa
  mass density: 529.17 ± 1.3 kg/m3
428.24 K, 34985 kPa
  mass density: 539.65 ± 1.3 kg/m3
428.24 K, 40008 kPa
  mass density: 548.93 ± 1.4 kg/m3
430.42 K
  vapor or sublimation pressure: 3884.7 ± 24 kPa
433.24 K, 4552 kPa
  mass density: 367.25 ± 1.3 kg/m3
433.24 K, 5002 kPa
  mass density: 383.51 ± 0.93 kg/m3
433.24 K, 9988 kPa
  mass density: 448.25 ± 0.98 kg/m3
433.24 K, 15006 kPa
  mass density: 476.83 ± 1.1 kg/m3
433.24 K, 20002 kPa
  mass density: 496.43 ± 1.1 kg/m3
433.24 K, 24994 kPa
  mass density: 511.67 ± 1.2 kg/m3
433.24 K, 29984 kPa
  mass density: 524.27 ± 1.3 kg/m3
433.24 K, 35007 kPa
  mass density: 535.14 ± 1.3 kg/m3
433.24 K, 39990 kPa
  mass density: 544.63 ± 1.4 kg/m3
433.88 K
  vapor or sublimation pressure: 4101.1 ± 26 kPa
438.24 K, 5016 kPa
  mass density: 356.57 ± 0.89 kg/m3
438.24 K, 9984 kPa
  mass density: 438.25 ± 0.96 kg/m3
438.24 K, 15001 kPa
  mass density: 469.64 ± 1.1 kg/m3
438.24 K, 20003 kPa
  mass density: 490.38 ± 1.1 kg/m3
438.24 K, 24991 kPa
  mass density: 506.29 ± 1.2 kg/m3
438.24 K, 29997 kPa
  mass density: 519.4 ± 1.3 kg/m3
438.24 K, 35007 kPa
  mass density: 530.6 ± 1.3 kg/m3
438.24 K, 39994 kPa
  mass density: 540.34 ± 1.4 kg/m3
443.23 K, 5019 kPa
  mass density: 312.48 ± 1.1 kg/m3
443.24 K, 10006 kPa
  mass density: 428.67 ± 0.95 kg/m3
443.24 K, 14981 kPa
  mass density: 462.28 ± 1 kg/m3
443.24 K, 20008 kPa
  mass density: 484.35 ± 1.1 kg/m3
443.24 K, 24985 kPa
  mass density: 500.93 ± 1.2 kg/m3
443.24 K, 29991 kPa
  mass density: 514.54 ± 1.3 kg/m3
443.24 K, 34987 kPa
  mass density: 526.05 ± 1.3 kg/m3
443.24 K, 39991 kPa
  mass density: 536.15 ± 1.4 kg/m3
448.23 K, 5020 kPa
  mass density: 224.32 ± 1.1 kg/m3
448.24 K, 9992 kPa
  mass density: 418.15 ± 0.95 kg/m3
448.24 K, 15006 kPa
  mass density: 454.98 ± 1 kg/m3
448.24 K, 20001 kPa
  mass density: 478.13 ± 1.1 kg/m3
448.24 K, 24996 kPa
  mass density: 495.5 ± 1.2 kg/m3
448.24 K, 30011 kPa
  mass density: 509.66 ± 1.3 kg/m3
448.24 K, 34990 kPa
  mass density: 521.51 ± 1.3 kg/m3
448.24 K, 39989 kPa
  mass density: 531.87 ± 1.4 kg/m3
453.24 K, 5018 kPa
  mass density: 172.57 ± 0.79 kg/m3
453.24 K, 9981 kPa
  mass density: 407.03 ± 0.95 kg/m3
453.24 K, 14999 kPa
  mass density: 447.35 ± 1 kg/m3
453.24 K, 20011 kPa
  mass density: 471.95 ± 1.1 kg/m3
453.24 K, 24994 kPa
  mass density: 490.05 ± 1.2 kg/m3
